From US20230165980A1, “METHODS FOR RADIOLABELING PSMA BINDING LIGANDS AND THEIR KITS” (Novartis AG, priority 2020, published 2023)

Assay: Radiochemical purity and radiochemical stability of ^68GaPSMA-11 by HPLC
Assay type: physicochemical
Conditions: for [^68Ga] Gallium PSMA-11 (sum of stereosiomers), HPLC / [^68Ga] Gallium free, HPLC / [^68Ga] Gallium main degradant, HPLC: t0 h
Method: Radiochemical Purity and Identification of ^68GaPSMA-11 by HPLC
Chromatographic Conditions
Radical Scavenger to be used for the improvement of the radiochemical stability of ^68Ga-PSMA-11, tests were performed according to a varied approach in order to consider all the parameters that may affect the radiochemical purity of the product (activity, pH, volume, amount of Gentisic Acid).
Stability tests were performed on the freeze dried product containing the final formulation. […] Kits manufactured with the final formulation, indeed, were stored at different stability conditions (2-8° C.; 25° C. and 40° C.) and were tested at different time points for API-assay, Radiochemical Purity and Radiochemical Stability of the radiolabelled product. Radiochemical Purity and Stability were assessed only eluting IRE Generator which represented the most stressful condition in terms of Radioactive Concentration (Volumic Activity).

[1] = Gentisic Acid 0 μg, IRE 17.19 mCi, 1 mL, pH 5.24
[2] = Gentisic Acid 200 μg, IRE 17.85 mCi, 1 mL, pH 5.22
[3] = Gentisic Acid 200 μg, IRE 18.07 mCi, 1 mL, pH 5.25
[4] = Gentisic Acid 200 μg, ITG 35.92 mCi, 4 mL, pH 4.83
[5] = Gentisic Acid 400 μg, IRE 17.44 mCi, 1 mL, pH 5.13
[6] = Gentisic Acid 400 μg, IRE 17.79 mCi, 1 mL, pH 5.11
[7] = Gentisic Acid 400 μg, ITG 16.9 mCi, 4 mL, pH 4.85
[8] = Gentisic Acid 400 μg, ITG 31.97 mCi, 4 mL, pH 4.81
[9] = Gentisic Acid 1000 μg, E&Z 15.65 mCi, 5 mL, pH 3.75
[10] = Gentisic Acid 1000 μg, IRE 17.1 mCi, 1 mL, pH 5.08
[11] = Gentisic Acid 1000 μg, ITG 30.9 mCi, 4 mL, pH 4.87
[12] = final formulation kit at Release, E&Z 15.65 mCi, 5 mL, pH 3.75
[13] = final formulation kit at Release, E&Z 16.80 mCi, 5 mL, pH 3.75
[14] = final formulation kit at Release, IRE 32.27 mCi, 1 mL, pH 4.95
[15] = final formulation kit at Release, IRE 32.95 mCi, 1 mL, pH 5.07
[16] = final formulation kit at Release, ITG 29.74 mCi, 4 mL, pH 4.67
[17] = final formulation kit at Release, ITG 30.90 mCi, 4 mL, pH 4.67
[18] = kit stored 3 months at 2-8° C., IRE 25.76 mCi, 1 mL, pH 5.29
[19] = kit stored 3 months at 25° C., IRE 24.56 mCi, 1 mL, pH 5.16
[20] = kit stored 3 months at 40° C., IRE 24.86 mCi, 1 mL, pH 5.23
[21] = kit stored 6 months at 2-8° C., IRE 19.90 mCi, 1 mL, pH 5.13
[22] = kit stored 6 months at 25° C., IRE 18.88 mCi, 1 mL, pH 5.09
[23] = kit stored 6 months at 40° C., IRE 19.34 mCi, 1 mL, pH 5.15

Question: Which “time for which the radiolabelled product is stable with high radiochemical purity” value (400 μg Gentisic Acid) does the source give for ^68Ga-PSMA-11 [[^68Ga] Gallium PSMA-11] here?
Answer: up to 4 hours

Question: What about the “[^68Ga] Gallium PSMA-11 (sum of stereosiomers), HPLC” value [1] of the same substance?
Answer: 92.71%

Question: And the “[^68Ga] Gallium free, HPLC” value [1]?
Answer: 0.15%

Question: What about the “[^68Ga] Gallium main degradant, HPLC” value [1] of the same substance?
Answer: 6.61%

Question: And the “[^68Ga] Gallium PSMA-11 (sum of stereosiomers), HPLC” value [2]?
Answer: 97.76%

Question: And the “[^68Ga] Gallium free, HPLC” value [2]?
Answer: 0.00%

Question: And the “[^68Ga] Gallium main degradant, HPLC” value [2]?
Answer: 1.83%

Question: And the “[^68Ga] Gallium PSMA-11 (sum of stereosiomers), HPLC” value [3]?
Answer: 98.46%

Question: What about the “[^68Ga] Gallium free, HPLC” value [3] of the same substance?
Answer: 0.00%

Question: And the “[^68Ga] Gallium main degradant, HPLC” value [3]?
Answer: 1.21%

Question: And the “[^68Ga] Gallium PSMA-11 (sum of stereosiomers), HPLC” value [4]?
Answer: 99.56%

Question: And the “[^68Ga] Gallium free, HPLC” value [4]?
Answer: 0.00%

Question: And the “[^68Ga] Gallium main degradant, HPLC” value [4]?
Answer: 0.19%

Question: And the “[^68Ga] Gallium PSMA-11 (sum of stereosiomers), HPLC” value [5]?
Answer: 99.29%

Question: And the “[^68Ga] Gallium free, HPLC” value [5]?
Answer: 0.00%

Question: What about the “[^68Ga] Gallium main degradant, HPLC” value [5] of the same substance?
Answer: 0.71%

Question: What about the “[^68Ga] Gallium PSMA-11 (sum of stereosiomers), HPLC” value [6] of the same substance?
Answer: 98.88%

Question: And the “[^68Ga] Gallium free, HPLC” value [6]?
Answer: 0.12%

Question: And the “[^68Ga] Gallium main degradant, HPLC” value [6]?
Answer: 1.00%

Question: What about the “[^68Ga] Gallium PSMA-11 (sum of stereosiomers), HPLC” value [7] of the same substance?
Answer: 99.16%

Question: What about the “[^68Ga] Gallium free, HPLC” value [7] of the same substance?
Answer: 0.08%

Question: What about the “[^68Ga] Gallium main degradant, HPLC” value [7] of the same substance?
Answer: 0.19%

Question: What about the “[^68Ga] Gallium PSMA-11 (sum of stereosiomers), HPLC” value [8] of the same substance?
Answer: 99.35%

Question: What about the “[^68Ga] Gallium free, HPLC” value [8] of the same substance?
Answer: 0.00%

Question: And the “[^68Ga] Gallium main degradant, HPLC” value [8]?
Answer: 0.16%

Question: And the “[^68Ga] Gallium PSMA-11 (sum of stereosiomers), HPLC” value [9]?
Answer: 99.87%

Question: What about the “[^68Ga] Gallium free, HPLC” value [9] of the same substance?
Answer: 0.00%

Question: And the “[^68Ga] Gallium main degradant, HPLC” value [9]?
Answer: 0.00%

Question: And the “[^68Ga] Gallium PSMA-11 (sum of stereosiomers), HPLC” value [10]?
Answer: 99.67%

Question: What about the “[^68Ga] Gallium free, HPLC” value [10] of the same substance?
Answer: 0.00%

Question: And the “[^68Ga] Gallium main degradant, HPLC” value [10]?
Answer: 0.33%

Question: What about the “[^68Ga] Gallium PSMA-11 (sum of stereosiomers), HPLC” value [11] of the same substance?
Answer: 99.80%

Question: And the “[^68Ga] Gallium free, HPLC” value [11]?
Answer: 0.01%

Question: What about the “[^68Ga] Gallium main degradant, HPLC” value [11] of the same substance?
Answer: 0.02%

Question: What about the “[^68Ga] Gallium PSMA-11 (sum of stereosiomers), HPLC” value [12] of the same substance?
Answer: 99.87%

Question: And the “[^68Ga] Gallium free, HPLC” value [12]?
Answer: 0.00%

Question: And the “[^68Ga] Gallium main degradant, HPLC” value [12]?
Answer: 0.00%

Question: What about the “[^68Ga] Gallium PSMA-11 (sum of stereosiomers), HPLC” value [13] of the same substance?
Answer: 99.68%

Question: What about the “[^68Ga] Gallium free, HPLC” value [13] of the same substance?
Answer: 0.00%

Question: What about the “[^68Ga] Gallium main degradant, HPLC” value [13] of the same substance?
Answer: 0.19%

Question: What about the “[^68Ga] Gallium PSMA-11 (sum of stereosiomers), HPLC” value [14] of the same substance?
Answer: 99.58%

Question: And the “[^68Ga] Gallium free, HPLC” value [14]?
Answer: 0.00%

Question: And the “[^68Ga] Gallium main degradant, HPLC” value [14]?
Answer: 0.00%

Question: What about the “[^68Ga] Gallium PSMA-11 (sum of stereosiomers), HPLC” value [15] of the same substance?
Answer: 99.66%

Question: What about the “[^68Ga] Gallium free, HPLC” value [15] of the same substance?
Answer: 0.00%

Question: And the “[^68Ga] Gallium main degradant, HPLC” value [15]?
Answer: 0.23%

Question: And the “[^68Ga] Gallium PSMA-11 (sum of stereosiomers), HPLC” value [16]?
Answer: 99.81%

Question: And the “[^68Ga] Gallium free, HPLC” value [16]?
Answer: 0.00%

Question: And the “[^68Ga] Gallium main degradant, HPLC” value [16]?
Answer: 0.05%

Question: And the “[^68Ga] Gallium PSMA-11 (sum of stereosiomers), HPLC” value [17]?
Answer: 98.80%

Question: What about the “[^68Ga] Gallium free, HPLC” value [17] of the same substance?
Answer: 0.01%

Question: And the “[^68Ga] Gallium main degradant, HPLC” value [17]?
Answer: 0.02%

Question: And the “[^68Ga] Gallium PSMA-11 (sum of stereosiomers), HPLC” value [18]?
Answer: 99.28%

Question: What about the “[^68Ga] Gallium free, HPLC” value [18] of the same substance?
Answer: 0.04%

Question: And the “[^68Ga] Gallium main degradant, HPLC” value [18]?
Answer: 0.55%

Question: What about the “[^68Ga] Gallium PSMA-11 (sum of stereosiomers), HPLC” value [19] of the same substance?
Answer: 99.22%

Question: What about the “[^68Ga] Gallium free, HPLC” value [19] of the same substance?
Answer: 0.05%

Question: And the “[^68Ga] Gallium main degradant, HPLC” value [19]?
Answer: 0.19%

Question: And the “[^68Ga] Gallium PSMA-11 (sum of stereosiomers), HPLC” value [20]?
Answer: 98.92%

Question: And the “[^68Ga] Gallium free, HPLC” value [20]?
Answer: 0.07%

Question: What about the “[^68Ga] Gallium main degradant, HPLC” value [20] of the same substance?
Answer: 0.26%

Question: And the “[^68Ga] Gallium PSMA-11 (sum of stereosiomers), HPLC” value [21]?
Answer: 99.40%

Question: What about the “[^68Ga] Gallium free, HPLC” value [21] of the same substance?
Answer: 0.00%

Question: And the “[^68Ga] Gallium main degradant, HPLC” value [21]?
Answer: 0.47%

Question: And the “[^68Ga] Gallium PSMA-11 (sum of stereosiomers), HPLC” value [22]?
Answer: 99.32%

Question: And the “[^68Ga] Gallium free, HPLC” value [22]?
Answer: 0.00%

Question: And the “[^68Ga] Gallium main degradant, HPLC” value [22]?
Answer: 0.42%

Question: What about the “[^68Ga] Gallium PSMA-11 (sum of stereosiomers), HPLC” value [23] of the same substance?
Answer: 99.21%

Question: What about the “[^68Ga] Gallium free, HPLC” value [23] of the same substance?
Answer: 0.04%
